Results from patent US20040224958A1, “Pyridopyrimidinone derivatives for treatment of neurodegenerative disease” (priority 2000, published 2004).

Assays:
Cdk5/p25 = Cdk5/p25 (Homo sapiens, UniProt Q00535); experiment: Cyclin-Dependent Kinase 5 High Throughput Screening (cdk5-HTS) Assay; format: biochemical; conditions: high throughput screen
Procedure: Cyclin-Dependent Kinase 5 High Throughput Screening (cdk5-HTS) Assay
Enzyme assays for IC50 determinations were performed in 96-Pierce Reacti-Bind™ White Opaque Glutatione Coated Plates (Cat. No. 15240B).
The total volume was 0.100 mL containing a final concentration of 50 mM TRIS (tris[hydroxymethyl]aminomethane) at pH 7.4, 50 mM NaCl, 10 mM MgCl2, 5 mM dithiothreitol, 20 μM ATP containing 16 μCi/mL of Redivue[y33P]ATP (Amersham Pharmacia Biotech Cat. No. AH9968), 1.0 μg/mL Cdk5/p25, 20 μg/mL GST-RbCOOH, and appropriate dilutions of a compound of the present invention. The reaction was started by adding[^33P]ATP, and the plate was shaken for 30 seconds, then incubated at room temperature for 30 minutes. The reaction was terminated by addition of 0.05 mL of 120 mM EDTA. The plate was kept at room temperature for 45 minutes to allow substrate to bind to the walls of the plate. The wells were then washed three times with 0.2 mL of 1×PBS. Once thoroughly dry, 0.140 mL of MicroScint™2O (Packard Bioscience Cat. No. 87-9081) cocktail was added to all wells. The incorporation of ^33P was determined with a beta plate counter (Packard Topcount).

cdk2/cyclinE = cdk2/cyclinE (Homo sapiens, UniProt P24941); experiment: Cyclin-Dependent Kinase Assay cdk2/cyclinE; conditions: cdk2/E IC50
cdc2/cyclinB = cdc2/cyclinB (Homo sapiens, UniProt P06493); experiment: Cyclin-Dependent Kinase Assay cdc2/cyclinB
cdk4/D = cdk4/D (Homo sapiens, UniProt P11802); experiment: Cyclin-Dependent Kinase 4 (cdk4) Assay; format: biochemical; conditions: read-out: cdk4/D IC50
Procedure: A typical assay, for instance, measures inhibitory activity against the cyclin D dependent kinase 4 enzyme (cdk4/D). […] The cdk4 assay was carried out as follows.
Cyclin-Dependent Kinase 4 (cdk4) Assay
All components except the ATP were added to the wells, and the plate was placed on a plate mixer for 2 minutes. The reaction was started by adding [^32P]ATP and the plate was incubated at 25° C. for 15 minutes. The reaction was terminated by addition of 0.1 mL of 20% trichloroacetic acid (TCA). The plate was kept at 4° C. for at least 1 hour to allow the substrate to precipitate. The wells were then washed five times with 0.2 mL of 10% TCA and ^32P incorporation was determined with a beta plate counter (Wallac Inc., Gaithersburg, Md.).

cdk2/cyclinA = cdk2/cyclinA (Homo sapiens, UniProt P24941); experiment: Cyclin-Dependent Kinase Assay cdk2/cyclinA; conditions: cdk2/A IC50

Chain of cdc2/cyclinB (P06493 whole entry): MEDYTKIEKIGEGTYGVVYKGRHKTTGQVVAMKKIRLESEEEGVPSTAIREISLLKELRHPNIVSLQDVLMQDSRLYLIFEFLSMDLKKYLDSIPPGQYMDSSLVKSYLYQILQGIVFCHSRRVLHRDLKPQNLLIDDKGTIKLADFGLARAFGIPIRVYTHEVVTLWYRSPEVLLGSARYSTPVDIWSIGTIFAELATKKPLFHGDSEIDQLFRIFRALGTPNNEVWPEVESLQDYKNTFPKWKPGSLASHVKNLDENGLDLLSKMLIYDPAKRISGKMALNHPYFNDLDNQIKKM
Chain of cdc2/cyclinB (P14635 whole entry, further chain): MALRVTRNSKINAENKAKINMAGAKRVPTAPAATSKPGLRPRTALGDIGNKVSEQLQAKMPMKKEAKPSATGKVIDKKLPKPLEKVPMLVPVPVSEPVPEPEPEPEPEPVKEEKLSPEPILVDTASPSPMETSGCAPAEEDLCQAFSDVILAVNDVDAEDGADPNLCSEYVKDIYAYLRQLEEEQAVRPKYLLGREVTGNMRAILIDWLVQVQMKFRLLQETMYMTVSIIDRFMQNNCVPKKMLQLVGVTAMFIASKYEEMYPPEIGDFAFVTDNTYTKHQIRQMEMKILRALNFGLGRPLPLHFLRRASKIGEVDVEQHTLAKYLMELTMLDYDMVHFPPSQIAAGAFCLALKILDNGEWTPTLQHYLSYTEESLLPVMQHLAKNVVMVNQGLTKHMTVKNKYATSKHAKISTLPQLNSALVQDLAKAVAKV
Chain of cdk4/D (P11802 whole entry): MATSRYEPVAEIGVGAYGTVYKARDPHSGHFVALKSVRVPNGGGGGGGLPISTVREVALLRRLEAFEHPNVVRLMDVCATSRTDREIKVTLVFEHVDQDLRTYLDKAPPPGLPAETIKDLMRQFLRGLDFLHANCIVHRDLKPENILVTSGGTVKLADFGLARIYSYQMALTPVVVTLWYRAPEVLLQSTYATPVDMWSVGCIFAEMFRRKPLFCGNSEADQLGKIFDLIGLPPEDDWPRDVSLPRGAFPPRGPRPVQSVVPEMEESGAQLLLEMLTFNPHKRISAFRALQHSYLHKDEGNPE
Chain of cdk4/D (P24385 whole entry, further chain): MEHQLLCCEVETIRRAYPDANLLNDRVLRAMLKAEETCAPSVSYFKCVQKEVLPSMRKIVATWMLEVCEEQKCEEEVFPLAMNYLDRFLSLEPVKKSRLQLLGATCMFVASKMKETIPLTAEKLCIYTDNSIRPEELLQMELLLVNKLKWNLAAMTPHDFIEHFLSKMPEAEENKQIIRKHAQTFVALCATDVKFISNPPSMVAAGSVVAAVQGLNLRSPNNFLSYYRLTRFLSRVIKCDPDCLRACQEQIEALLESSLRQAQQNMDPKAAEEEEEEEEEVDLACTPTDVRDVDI

Row | IC50 (Cdk5/p25) [µM] | IC50 (cdk2/cyclinE) [µM] | IC50 (cdc2/cyclinB) [µM] | IC50 (cdk4/D) [µM] | IC50 (cdk2/cyclinA) [µM] | SMILES
1 | 0.14 | 1.8 | 3.9 | 0.21 |  | O=c1ccc2cnc(Nc3ccc(OC(F)(F)F)cc3)nc2n1CC1CC1 [Example 591, 8-Cyclopropylmethyl-2-(4-trifluoromethoxy-phenylamino)-8H-pyrido[2,3-d]pyrimidin-7-one]
2 | 0.785 | 1.7 | 2.35 |  |  | O=c1ccc2cnc(Nc3cccc([N+](=O)[O-])c3)nc2n1CC(F)(F)F [Example 599, 2-(3-Nitro-phenylamino)-8-(2,2,2-trifluoro-ethyl)-8H-pyrido[2,3-d]pyrimidin-7-one]
3 | 0.66 | 1 | 1.4 | 1 |  | CC(C)n1c(=O)ccc2cnc(Nc3cc([N+](=O)[O-])ccc3F)nc21 [Example 420, 2-(2-Fluoro-5-nitro-phenylamino)-8-isopropyl-8H-pyrido[2,3-d]pyrimidin-7-one]
4 | 0.42 |  |  |  |  | Cn1c(=O)ccc2cnc(Nc3ccc(C#N)c(C(F)(F)F)c3)nc21 [Example 620, 4-(8-Methyl-7-oxo-7,8-dihydro-pyrido[2,3-d]pyrimidin-2-ylamino)-2-trifluoromethyl-benzonitrile]
5 | 1 | 2.7 | 2.9 | 1.5 |  | CCn1c(=O)ccc2cnc(Nc3ccc(C#N)c(NC(C)=O)c3)nc21 [Example 299, N-[2-Cyano-5-(8-ethyl-7-oxo-7,8-dihydro-pyrido[2,3-d]pyrimidin-2-ylamino)-phenyl]-acetamide]
6 | 1.8 |  | 3.5 | 3.8 |  | COc1cc(Nc2ncc3ccc(=O)n(CC(F)(F)F)c3n2)cc(C(F)(F)F)c1 [Example 606, 2-(3-Methoxy-5-trifluoromethyl-phenylamino)-8-(2,2,2-trifluoro-ethyl)-8H-pyrido[2,3-d]pyrimidin-7-one]
7 |  | 2.9 |  | 2.8 | 3.9 | CC(=O)Nc1c(F)cc(Nc2ncc3ccc(=O)n(CC4CC4)c3n2)cc1Cl [Example 579, N-[2-Chloro4-(8-cyclopropylmethyl-7-oxo-7,8-dihydro-pyrido[2,3-d]pyrimidin-2-ylamino)-6-fluoro-phenyl]-acetamide]
8 | 1.16 | 1.46 | 1.76 | 3 |  | CCCn1c(=O)ccc2cnc(Nc3cc(C(F)(F)F)ccc3F)nc21 [Example 311, 2-(2-Fluoro-5-trifluoromethyl-phenylamino)-8-propyl-8H-pyrido[2,3-d]pyrimidin-7-one]
9 | 1.2 |  |  |  |  | N#Cc1ccc(Nc2ncc3ccc(=O)n(CC(F)(F)F)c3n2)cc1C#N [Example 603, 4-[7-Oxo-8-(2,2,2-trifluoro-ethyl)-7,8-dihydro-pyrido[2,3-d]pyrimidin-2-ylamino]-phthalonitrile]
10 | 0.058 | 0.065 | 0.165 | 0.515 |  | CCCCn1c(=O)ccc2cnc(Nc3cc(Cl)cc(Cl)c3)nc21 [Example 391, 8-Butyl-2-(3,5-dichloro-phenylamino)-8H-pyrido[2,3-d]pyrimidin-7-one]
11 | 0.72 | 1.3 | 1.86 |  |  | O=c1ccc2cnc(Nc3ccc(O)cc3F)nc2n1CC(F)(F)F [Example 596, 2-(2-Fluoro-4-hydroxy-phenylamino)-8-(2,2,2-trifluoro-ethyl)-8H-pyrido[2,3-d]pyrimidin-7-one]
12 | 0.65 | 2.3 |  |  |  | CCn1c(=O)ccc2cnc(Nc3cc(C(F)(F)F)ccc3F)nc21 [Example 302, 8-Ethyl-2-(2-fluoro-5-trifluoromethyl-phenylamino)-8H-pyrido[2,3-d]pyrimidin-7-one]
13 | 0.3 | 0.91 | 1.3 |  |  | CCCn1c(=O)ccc2cnc(Nc3cc(OC)c(OC)c(OC)c3)nc21 [Example 334, 8-Propyl-2-(3,4,5-trimethoxy-phenylamino)-8H-pyrido[2,3-d]pyrimidin-7-one]
14 | 0.18 |  | 1.8 | 1.3 |  | COc1ccc(Nc2ncc3ccc(=O)n(CC(F)(F)F)c3n2)cc1F [Example 602, 2-(3-Fluoro-4-methoxy-phenylamino)-8-(2,2,2-trifluoro-ethyl)-8H-pyrido[2,3-d]pyrimidin-7-one]
15 | 2 |  |  | 3.2 |  | CC(=O)Nc1cc(Nc2ncc3ccc(=O)n(CC(F)(F)F)c3n2)ccc1C#N [Example 604, N-{2-Cyano-5-[7-oxo-8-(2,2,2-trifluoro-ethyl)-7,8-dihydro-pyrido[2,3-d]pyrimidin-2-ylamino]-phenyl}-acetamide]
16 | 0.61 | 1.2 | 0.86 |  |  | CCn1c(=O)ccc2cnc(Nc3cc(OC)c(OC)c(OC)c3)nc21 [Example 292, 8-Ethyl-2-(3,4,5-trimethoxy-phenylamino)-8H-pyrido[2,3-d]pyrimidin-7-one]
17 | 2.9 |  |  |  |  | CCCn1c(=O)ccc2cnc(Nc3ccc4c(c3)NCC4)nc21 [Example 352, 2-(2,3-Dihydro-1H-indol-6-ylamino)-8-propyl-8H-pyrido[2,3-d]pyrimidin-7-one]
18 | 2.27 | 1.03 | 2.4 |  |  | CCCCn1c(=O)ccc2cnc(Nc3cc(C(F)(F)F)ccc3F)nc21 [Example 372, 8-Butyl-2-(2-fluoro-5-trifluoromethyl-phenylamino)-8H-pyrido[2,3-d]pyrimidin-7-one]
19 | 0.61 |  |  | 1.4 |  | O=c1ccc2cnc(Nc3ccc(F)c(F)c3)nc2n1CC(F)(F)F [Example 607, 2-(3,4-Difluoro-phenylamino)-8-(2,2,2-trifluoro-ethyl)-8H-pyrido[2,3-d]pyrimidin-7-one]
20 | 2.44 | 2.58 | 2.19 |  |  | CCCn1c(=O)ccc2cnc(Nc3cc(C(F)(F)F)cc(C(F)(F)F)c3)nc21 [Example 315, 2-(3,5-Bis-trifluoromethyl-phenylamino)-8-propyl-8H-pyrido[2,3-d]pyrimidin-7-one]
21 | 1.3 |  |  | 2.6 |  | Cc1cc(Nc2ncc3ccc(=O)n(C(C)C)c3n2)ccc1O [Example 435, 2-(4-Hydroxy-3-methyl-phenylamino)-8-isopropyl-8H-pyrido[2,3-d]pyrimidin-7-one]
22 | 0.83 | 1.8 |  |  |  | CCCn1c(=O)ccc2cnc(Nc3ccc(C#N)c(C#N)c3)nc21 [Example 339, 4-(7-Oxo-8-propyl-7,8-dihydro-pyrido[2,3-d]pyrimidin-2-ylamino)-phthalonitrile]
23 | 3.2 |  |  |  |  | O=c1ccc2cnc(Nc3cc(F)cc(F)c3)nc2n1CC(F)(F)F [Example 609, 2-(3,5-Difluoro-phenylamino)-8-(2,2,2-trifluoro-ethyl)-8H-pyrido[2,3-d]pyrimidin-7-one]
24 | 2.2 | 3.8 |  |  |  | Cn1c(=O)ccc2cnc(Nc3ccc(O)c(Cl)c3)nc21 [Example 616, 2-(3-Chloro-4-hydroxy-phenylamino)-8-methyl-8H-pyrido[2,3-d]pyrimidin-7-one]
25 | 3.5 |  |  |  |  | CCC(CC)n1c(=O)ccc2cnc(Nc3ccc(C(F)(F)F)c([N+](=O)[O-])c3)nc21 [Example 489, 8-(1-Ethyl-propyl)-2-(3-nitro-4-trifluoromethyl-phenylamino)-8H-pyrido[2,3-d]pyrimidin-7-one]
26 | 1.7 |  |  |  |  | COc1cc(Nc2ncc3ccc(=O)n(C)c3n2)cc(OC)c1OC [Example 619, 8-Methyl-2-(3,4,5-trimethoxy-phenylamino)-8H-pyrido[2,3-d]pyrimidin-7-one]
27 | 3.3 |  |  |  |  | O=c1ccc2cnc(Nc3cccc(C(F)(F)F)c3)nc2n1CC(F)(F)F [Example 611, 8-(2,2,2-Trifluoro-ethyl)-2-(3-trifluoromethyl-phenylamino)-8H-pyrido[2,3-d]pyrimidin-7-one]
28 | 0.23 | 1.2 | 3.1 |  |  | CCCn1c(=O)ccc2cnc(Nc3ccc(Cl)c(Cl)c3)nc21 [Example 350, 2-(3,4-Dichloro-phenylamino)-8-propyl-8H-pyrido[2,3-d]pyrimidin-7-one]
29 | 0.595 | 2.9 | 1.7 |  |  | COc1ccc(Nc2ncc3ccc(=O)n(C)c3n2)cc1OC [Example 617, 2-(3,4-Dimethoxy-phenylamino)-8-methyl-8H-pyrido[2,3-d]pyrimidin-7-one]
30 | 0.555 | 1.67 | 1.9 |  |  | O=c1ccc2cnc(Nc3ccc4[nH]ncc4c3)nc2n1CC(F)(F)F [Example 594, 2-(1H-Indazol-5-ylamino)-8-(2,2,2-trifluoro-ethyl)-8H-pyrido[2,3-d]pyrimidin-7-one]
